Test results: patent US9872863B2, “Targeting primary cilia to treat glaucoma” (Indiana University Research and Technology Corporation, priority 2014, dated 2018)

Tests used:
[1] = biological target: T1, TRPV4 (Homo sapiens, UniProt Q9HBA0); assay: Ca2+ imaging, Fura-2 F340/380 ratio after TRPV4 agonist; assay type: cell-based; set-up: TRPV4-induced calcium flux, ratio of F340/380: dose or concentration left out as unconfirmed
T1 construct: endogenous in cells; host or cells: HTM cells, NHF fibroblasts, NHKC keratinocytes, Lowe syndrome patient fibroblasts and keratinocytes
T1 sequence (Q9HBA0 whole entry): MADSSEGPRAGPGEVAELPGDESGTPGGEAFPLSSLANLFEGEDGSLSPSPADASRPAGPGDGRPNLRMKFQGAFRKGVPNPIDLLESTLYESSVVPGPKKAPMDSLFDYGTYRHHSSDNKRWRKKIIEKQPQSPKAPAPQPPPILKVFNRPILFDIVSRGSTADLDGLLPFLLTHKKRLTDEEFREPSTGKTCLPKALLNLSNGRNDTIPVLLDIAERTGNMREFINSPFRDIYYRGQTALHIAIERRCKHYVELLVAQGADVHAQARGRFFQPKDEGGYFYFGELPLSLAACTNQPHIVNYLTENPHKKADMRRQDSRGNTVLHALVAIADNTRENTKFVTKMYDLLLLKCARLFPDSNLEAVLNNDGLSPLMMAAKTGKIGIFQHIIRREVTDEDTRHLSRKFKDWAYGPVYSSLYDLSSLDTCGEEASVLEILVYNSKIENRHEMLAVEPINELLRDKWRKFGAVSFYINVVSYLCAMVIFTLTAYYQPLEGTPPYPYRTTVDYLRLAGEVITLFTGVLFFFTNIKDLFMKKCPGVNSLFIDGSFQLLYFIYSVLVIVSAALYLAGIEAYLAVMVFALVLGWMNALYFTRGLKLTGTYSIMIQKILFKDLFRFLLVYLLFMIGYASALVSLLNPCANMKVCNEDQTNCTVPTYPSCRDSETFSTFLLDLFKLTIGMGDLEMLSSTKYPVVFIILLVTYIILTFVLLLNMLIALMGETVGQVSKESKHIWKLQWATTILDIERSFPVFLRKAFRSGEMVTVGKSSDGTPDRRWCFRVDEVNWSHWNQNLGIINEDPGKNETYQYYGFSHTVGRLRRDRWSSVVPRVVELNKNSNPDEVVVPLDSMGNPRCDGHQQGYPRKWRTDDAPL
Method: Flow-induced Ca^2+ signals were examined in the presence and absence of cilia in HTM cells. To remove primary cilia, 2 mM aqueous chlorohydrate (Sigma, St. Louis) was added for 48 hours. Prior to flow experiments, cells were washed three times with PBS, and fresh medium was added for 24 hours. The Fura-2 loaded HTM cells were subjected to laminar flow rates as indicated. Single-cell analysis of the Ca^2+ signals (ratio 340/380 nm) of the same experiment was obtained. Intracellular Ca^2+ changes were monitored by ratiometric imaging of Fura-2 AM fluorescence in the HTM cells. HTM cells were loaded with Fura-2 AM for 1 hour at 37° C. in PBS with 40 μM fura-2 AM, 0.33 mM pyruvate, 0.901 mM Ca^2+, 0.5 mM Mg^2+, 5.5 mM glucose, and 0.1% BSA. The Fura-2 AM-loaded HTM cells were washed in PBS and were mounted in the chamber. Ca^2+ imaging experiments were performed using a monochromator-based TILL PHOTONICS imaging system, which was attached to an inverted ZEISS microscope equipped (×2.5 objective) with a back-illuminated ANDOR CCD camera. Fura-2 AM was alternately excited at 345 nm and 380 nm and the emitted light was collected using a 510-nm long-pass filter. The TILLVISION software (TILL PHOTONICS) was used to acquire all fluorescence imaging experiments and to perform the analysis of images. Images were acquired every 2 seconds. The background fluorescence was subtracted and the intracellular Ca^2+ concentration ([Ca^2+]i) was calculated using the equation: [Ca^2+]i=Kd×[(R−Rmin)/(Rmax−R)]×[Fmax(380)/Fmin(380)](R is the fluorescence ratio, Rmax is the ratio at saturation calcium concentration, Rmin is the ratio at zero calcium in the medium, Fmin(380) is the fluorescence at 380 nm at zero Ca^2+ concentration in the medium, and Fmax(380) is the fluorescence at 380 nm at saturation Ca^2+ concentration) (Touw et al., Am. J. Physiol. Gastro. Liver Physiology 2012, 302(1):G66-76).
For calcium flow experiments, HTM cells and NHF cells were first incubated in 3% BSA in PBS and stained with Fura2 dye for 1 hour. Ca^2+ flux was induced by laminar flow gradient (16 μl/s) over the cell surface, which bends cilia, followed by 10 mM KCl. Cells were imaged for calcium during flow. Calcium flux was also measured by F340/380 ratio in HTM cells and NHF cells after treatment with the 0.1 μM TRPV4 agonist GSK1016790A. Results presented represent calcium mobilization in three independent experiments.
HTM cells treated, with or without pressure, were further evaluated to determine their response to TRPV4 agonist. HTM cells were serum-starved for 48 hours to induce ciliogenesis, followed by treatment with 0 or 50 mmHg for 3 hours. Cells were loaded with Fura-2 AM dye for 1 hour, followed with […] TRPV4 agonist GSK1016790A.
OCRL is required for TRPV4-mediated calcium signalling in HTM cells. HTM cells were additionally treated with OCRL siRNA or scrambled control siRNA, with or without wild-type OCRL or OCRL-D499A rescue. 0.1 μM TRPV4 agonist GSK1016790A treatment was performed and calcium mobilization by F340/380 (value X 1000) was measured and shown.
Additionally, a Lowe syndrome patient's keratinocytes were isolated and assayed for their response to TRPV4 treatment. NHKC or Lowe keratinocytes were serum-starved, loaded with Fura-2 AM and then treated with 0.1 μM TRPV4 agonist GSK1016790A. F340/380 ratio (value X 1000) was determined.

[2] = system: wpk−/− rats; assay: Intraocular pressure in wpk−/− rats (Tonolab tonometer); assay type: in vivo, rat; conditions: 17-day-old wpk−/− rats, systemic, once per day for 8 days, agonist 50 ng/g, measured 24 hours after treatment
Method: All animal experiments followed the guidelines of the ARVO Statement for the Use of Animals in Ophthalmic and Vision Research and were approved by the Institutional Animal Care and Use Committee of Indiana University School of Medicine. Wpk rats, a polycystic kidney disease model, were housed under a 12-hour light/dark cycle with free access to water and food (Smith et al., Nat. Genet. 2006, 38(2):191-196). For […], 50 mg/ml sodium pentobarbital was injected.
(§1) lntraocular Pressure (TOP) was measured with the TONOLAB tonometer TV02 (Helsinki, Finland) with rats under topical anesthesia. IOP was measured using six valid rebound measurements of the device from the eye, where the mean of the middle five readings was taken for one summary measurement. A single set of readings was collected with the best reproducibility indicator during the IOP measurements.
Based on the results presented above, the functional consequences of activating TRPV4 on eye pressure were therefore assessed in the wpk rat model. The wpk rat is a well-established model for studying ciliopathy, as these animals develop hydrocephalus that responds to cilia-based therapy.
8-day old wpk^−/− rats were treated with sham, TRPV4 agonist (50 ng/g, GSK 1016790A), or antagonist (HC 067047) once per day for 8 days. […]

[3] = system: C57BL/6 WT mice; assay: Intraocular pressure in C57BL/6 WT mice, 4 days of treatment; assay type: in vivo, mouse; conditions: nine-week old C57BL/6 WT mice, systemic, daily over 4 days, 24 hours after treatment; decrease from 12.4
Method: as §1
This finding was confirmed in wild-type C5BL/6 mice treated with systemic TRPV4 agonist, antagonist, or sham control, daily over 4 days. Nine-week old C57BL/6 WT mice were treated with sham, TRPV/4 agonist GSK 1016790A or antagonist HC 067047 for 4 days. IOP was measured using a Tonolab tonometer 24 hours after treatment. As shown in FIG. 12D article, a decrease in IOP from 12.4 to 10.3 mmHg was seen.

[4] = system: HTM cells; assay: Pressure-induced TNFα, TGFβ1 and Gli1 mRNA in serum-starved HTM cells (RT-PCR); assay type: cell-based, human; conditions: 50 mmHg for 3 hours
Method: Total RNA was extracted using the RNAEASY® kit (Qiagen). Purified RNA was quantitated with the NANODROP® 2000 (Thermo Fisher Scientific, Lafayette, Colo.). Reverse transcription of total RNA was done using SUPERSCRIPT cDNA synthesis kit (Invitrogen) with random hexamers. Quantitative RT-PCR was performed using the RQ and ΔΔCt method on a Step One Real-Time PCR machine (Bio-Rad Laboratories, Hercules, Calif.). Each assay was performed in triplicate with Power SYBR green MasterMix (SA Biosciences, Frederick, Md.).
To analyze the cellular changes in the TM cells, a hydrostatic pressure chamber was developed similar to that of Mandel et al. (Invest. Ophthalmol. Vis. Sci. 2010, 51(6):3129-3138). The cells were grown in 60 mm polycarbonate dishes sealed to attach to a plastic column filled with 400 mL DMEM/F12 media with or without serum for cilia induction. The column was temperature controlled at 37° C. in humidified chamber. […]
HTM cells were serum-starved for 48 hours and treated with saline, saline plus 50 mmHg pressure, chlorohydrate, and chlorohydrate plus 50 mmHg pressure for 3 hours. Levels of mRNA of TNFα, TGFβ1 and Gli1 were then measured. […] Serum-starved HTM cells were also placed under 50 mmHg pressure for 0, 10, 20, 40, 60 and 80 minutes and analyzed for expression of TNFα and IL-33. […]

## CC(C)C[C@H](NC(=O)c1cc2ccccc2s1)C(=O)N1CCN(C(=O)[C@H](CO)NS(=O)(=O)c2ccc(Cl)cc2Cl)CC1 [GSK1016790A, N-((1S)-1-{[4-((2S)-2-{[(2,4-dichlorophenyl)sulfonyl]amino}-3-hydroxypropanoyl)-1-piperazinyl]carbonyl}-3-methylbutyl)-1-benzothiophene-2-carboxamide]
[1]; HTM cells treated with OCRL siRNA, 0.1 μM agonist, rescued by wild-type OCRL, not by D499A mutant
  Calcium mobilization by F340/380: decrease in F340/F380 fura-2 signaling
[1]; Lowe patient fibroblasts (Lowe 1, Lowe 2)
  Calcium mobilization: failed to elicit calcium mobilization
[1]; Lowe patient keratinocytes compared with normal keratinocytes (NHKC), 0.1 μM agonist
  Calcium mobilization, F340/380 ratio: failed to elicit calcium mobilization
[1]; NHF cells, 0.1 μM agonist
  Calcium flux as measured by F340/380 ratio: elicited
[1]; ciliated HTM cells, 50 mmHg hydrostatic pressure for 3 hours vs 0 mmHg
  TRPV4-induced calcium flux, ratio of F340/380: significant decrease in TRPV4-induced calcium flux
[2]
  Intraocular pressure: significantly reduced
[3]
  IOP: 10.3 mmHg

## Cc1c(C(=O)Nc2cccc(C(F)(F)F)c2)cc(-c2ccccc2)n1CCCN1CCOCC1 [HC 067047]
[2]
  Intraocular pressure: not

## OC(O)C(Cl)(Cl)Cl [chlorohydrate]
[4]
  Elevation of gene transcription (TNFα, TGFβ1, Gli1 mRNA) in response to pressure: reduced the elevation of gene transcription in response to pressure
